Laboratory results published in PMC10812672, “Short Antimicrobial Peptide Derived from the Venom Gland Transcriptome of Pamphobeteus verdolaga Increases Gentamicin Susceptibility of Multidrug-Resistant Klebsiella pneumoniae” (Antibiotics, 2023).
Ends that are not written are not given here.

How the values were obtained:
[1] = system: K. pneumoniae ATCC® BAA-1705; format: cell-based, Klebsiella pneumoniae
Protocol: (§1) The nine AMPs identified in the initial screening were evaluated at concentrations between 1.56–200 µM, against E. coli ATCC® 25922, S. aureus ATCC® 29213, E. faecalis ATCC® 49532, P. aeruginosa ATCC® 9027, and K. pneumoniae ATCC® BAA-1705 (Supplementary Figures S2–S6). […] Only PvAMP66 and PvAMP172 reached the MBC for S. aureus at 50 µM and 100 µM, respectively (Table 2).
(§2) The evaluation of the antimicrobial activity of the peptides was conducted using the CLSI’s broth microdilution method for bacterial susceptibility testing. For the screening phase, peptides were evaluated at a single 30 μM concentration, in triplicate and in three independent assays, against the E. coli ATCC® 8739, E. coli ATCC® 25922, S. aureus ATCC® 6538, or S. aureus ATCC® 29213 reference USP and CLSI strains. […] Following this, the bacteria were suspended in Mueller-Hinton broth up to a concentration of approximately 1.50 × 10^8 CFU/mL, as measured by optical density at 600 nm between 0.06 to 0.11 (0.5 McFarland standard), in a Multiskan SkyHigh spectrophotometer (ThermoFisher Scientific, Waltham, MA, USA). […] The plate was incubated for 24 h at 37 °C (BE 500, Memmert GmbH, Büchenbach, Germany) and optical density was measured at 600 nm in a Multiskan SkyHigh spectrophotometer (ThermoFisher Scientific, Waltham, MI, USA). […]

[2] = system: E. coli ATCC® 25922; format: cell-based, Escherichia coli; conditions: CLSI broth microdilution, Mueller-Hinton broth, peptide 30 µM, ~6 × 10^6 CFU/mL, 24 h 37 °C, OD600; triplicate, three independent assays; NA = no activity
Protocol: (§3) Activity screening was conducted using the broth microdilution method at a fixed peptide concentration of 30 µM against E. coli ATCC® 8739 and 25922, as well as S. aureus ATCC® 6538 and 29213. The bacterial density used for screening was approximately 6 × 10^6 CFU/mL [30]. Peptide activity measurements were conducted in terms of the growth inhibition percentage. No dose-response curves were generated during the screening phase as a resource optimization strategy in the initial activity evaluation. […] For S. aureus ATCC® 6538 and S. aureus ATCC® 29213, growth inhibition ranged from 0% to 140% and 0% to 98%, respectively (Table 1).
(§4) The evaluation of the antimicrobial activity of the peptides was conducted using the CLSI’s broth microdilution method for bacterial susceptibility testing. For the screening phase, peptides were evaluated at a single 30 μM concentration, in triplicate and in three independent assays, against the E. coli ATCC® 8739, E. coli ATCC® 25922, S. aureus ATCC® 6538, or S. aureus ATCC® 29213 reference USP and CLSI strains. For the determination of MIC, MBC, or IC50, peptides or antibiotics were evaluated in concentrations between 1.56–200 µM. These evaluations were conducted in triplicate and in three independent assays, against the E. coli ATCC® 25922, S. aureus ATCC® 29213, E. faecalis ATCC® 49532, P. aeruginosa ATCC® 9027, and K. pneumoniae ATCC® BAA-1705, or the clinically isolated MDR strain. In detail, 1 mL of a glycerol stock solution of the ATCC® or clinically isolated bacterial strain was added to 9 mL of Mueller-Hinton Broth and incubated for 18 h, 180 rpm and 37 °C (Incubator 1000, Heidolph Instruments, Schwabach, Germany). After the incubation, 1 mL of the previous solution was transferred to a new recipient containing 9 mL of fresh Mueller-Hinton broth and incubated for 4 h, 180 rpm and 37 °C (Incubator 1000, Heidolph Instruments, Schwabach, Germany). During the second incubation, the peptides or the antibiotics were dissolved in PBS pH 7.20 in concentrations between 19.53–2500 µM (MC5 Micro Balance, Sartorius AG, Göttingen, Germany). An amount of 10 µL of either peptide or antibiotic was dispensed in triplicate in 96-well flat bottom culture plates, along with 10 µL of PBS (Negative activity control), BTM-P1 (Positive activity control), or 10 µL of Mueller-Hinton broth (Blank); then, 110 µL of Mueller-Hinton broth was poured in all wells. Following this, the bacteria were suspended in Mueller-Hinton broth up to a concentration of approximately 1.50 × 10^8 CFU/mL, as measured by optical density at 600 nm between 0.06 to 0.11 (0.5 McFarland standard), in a Multiskan SkyHigh spectrophotometer (ThermoFisher Scientific, Waltham, MA, USA). Amounts of 5 µL of the 1.50 × 10^8 CFU/mL suspension were added to each well (except for the blank) for a final well concentration of approximately 6 × 10^6 CFU/mL. The plate was incubated for 24 h at 37 °C (BE 500, Memmert GmbH, Büchenbach, Germany) and optical density was measured at 600 nm in a Multiskan SkyHigh spectrophotometer (ThermoFisher Scientific, Waltham, MI, USA). Following the measurement of optical density, plates were visually inspected to determine the MIC. Subsequently, 100 µL of the concentration associated to the MIC and 100 µL of the next higher concentration were added to Petri dishes containing Mueller-Hinton Agar. The dishes were then incubated for 24 h at 37 °C (BE 500, Memmert GmbH, Büchenbach, Germany). After incubation, the Petri dishes were visually inspected, and the MBC was determined in the absence of growth. IC50 values were interpolated from regressions with correlation values above 0.70. Growth inhibition percentages were calculated as follows: Growth inhibition %=1−AbsPEPTIDE or ANTIBIOTIC−Median AbsBLANK/Median AbsPBS−Median AbsBLANK×100

[3] = system: E. coli ATCC® 8739; format: cell-based, Escherichia coli; conditions: CLSI broth microdilution, Mueller-Hinton broth, peptide 30 µM, ~6 × 10^6 CFU/mL, 24 h 37 °C, OD600; triplicate, three independent assays; NA = no activity
Protocol: as §3, §4

[4] = system: Gram-positive and Gram-negative bacteria representative of the ESKAPE group; format: cell-based; conditions: average over Gram-positive and Gram-negative ATCC strains of the ESKAPE group
Protocol: as §1, §2

WKKIKKFF-NH2 [PvAMP66]
MIC ([1]; 1.56–200 µM, 24 h 37 °C, visual inspection): 100 µM | IC50 ([1]; growth inhibition OD600, 95% confidence interval in parentheses): 45.5 µM | E. coli ATCC® 25922 (Inhibition %) [2]: 73.59 ± 21.83 % | E. coli ATCC® 8739 (Inhibition %) [3]: 88.81 ± 18.15 % | average MIC [4]: 46.87 µM
